Assay results published in patent publication US20250250230A1, “HETEROCYCLIC COMPOUND” (TAKEDA PHARMACEUTICAL COMPANY LIMITED, priority 2022, published 2025).

Molecular target: T1, human orexin type 2 receptor (Homo sapiens, UniProt O43614)
T1 construct: expressed in transfected cells
T1 sequence (O43614 1-444): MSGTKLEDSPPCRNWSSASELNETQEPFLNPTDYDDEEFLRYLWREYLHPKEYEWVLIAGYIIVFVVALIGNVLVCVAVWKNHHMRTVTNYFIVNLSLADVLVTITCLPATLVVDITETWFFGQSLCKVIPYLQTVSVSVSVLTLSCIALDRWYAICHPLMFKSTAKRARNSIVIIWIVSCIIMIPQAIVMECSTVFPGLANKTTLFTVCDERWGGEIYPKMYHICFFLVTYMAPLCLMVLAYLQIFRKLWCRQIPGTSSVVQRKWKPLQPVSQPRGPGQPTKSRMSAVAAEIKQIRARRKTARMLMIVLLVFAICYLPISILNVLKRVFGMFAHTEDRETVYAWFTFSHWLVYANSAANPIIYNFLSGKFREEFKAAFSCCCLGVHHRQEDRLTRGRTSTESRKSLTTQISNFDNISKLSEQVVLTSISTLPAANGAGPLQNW
Assay: Measurement of orexin type 2 receptor agonist activity (calcium fluorescence, Fluo-4 AM, FDSS)
Assay type: cell-based
Details: test compound 3 μM; CHO cells expressing human OX2 receptor; DMSO = 0%, orexin A (human) = 100%
How it was run: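 Agonist response scaled between vehicle (0%) and human orexin A at 10 nM final (100%), from 2-min kinetic Fluo-4 fluorescence reads. Stable hOX2R CHO-K1 clone, dye-loaded in HBSS/20 mM HEPES/0.1% BSA with 1.25 mM probenecid before compound addition.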

OX2R agonist activity (3 μM, %) | Structure (SMILES)
92% | CC[C@@H]1CN(C(=O)[C@@H]2C[C@@]2(F)c2ccccc2-c2c(F)cccc2F)[C@@H]1CNS(C)(=O)=O [Example 380, N-({(2S,3R)-1-[(1S,2S)-2-(2′,6′-difluoro[1,1′-biphenyl]-2-yl)-2-fluorocyclopropane-1-carbonyl]-3-ethylazetidin-2-yl}methyl)methanesulfonamide]
101% | COCC1(C(=O)N2CC[C@H]2CNS(C)(=O)=O)CC1c1ccc(F)cc1-c1c(F)cccc1F (stereo partly drawn) [Example 435, N-({(2S)-1-[(1R,2S)-1-(methoxymethyl)-2-(2′,5,6′-trifluoro[1,1′-biphenyl]-2-yl)cyclopropane-1-carbonyl]azetidin-2-yl}methyl)methanesulfonamide, or N-({(2S)-1-[(1S,2R)-1-(methoxymethyl)-2-(2′,5,6′-trifluoro[1,1′-biphenyl]-2-yl)cyclopropane-1-carbonyl]azetidin-2-yl}methyl)methanesulfonamide]
101% | CCS(=O)(=O)NC[C@@H]1[C@@H](F)CN1C(=O)[C@@H]1C[C@@]1(F)c1ccccc1-c1c(F)cccc1F [Example 414, N-({(2R,3S)-1-[(1S,2S)-2-(2′,6′-difluoro[1,1′-biphenyl]-2-yl)-2-fluorocyclopropane-1-carbonyl]-3-fluoroazetidin-2-yl}methyl)ethanesulfonamide]
95% | CS(=O)(=O)N[C@H]1C[C@H](O)CN(C(=O)[C@@H]2C[C@@]2(F)c2ccccc2-c2c(F)cccc2F)C1 [Example 332, N-{(3S,5S)-1-[(1S,2S)-2-(2′,6′-difluoro[1,1′-biphenyl]-2-yl)-2-fluorocyclopropane-1-carbonyl]-5-hydroxypiperidin-3-yl}methanesulfonamide]
85% | CS(=O)(=O)NC1CCCN(C(=O)C2CC2c2ccccc2-c2ccc(F)cc2F)CC1 (racemic) [Example 56, a mixture of rac-N-{(4R)-1-[(1R,2R)-2-(2′,4′-difluoro[1,1′-biphenyl]-2-yl)cyclopropane-1-carbonyl]azepan-4-yl}methanesulfonamide and rac-N-{(4S)-1-[(1R,2R)-2-(2′,4′-difluoro[1,1′-biphenyl]-2-yl)cyclopropane-1-carbonyl]azepan-4-yl}methanesulfonamide]
100% | O=C(C1CC1c1ccccc1-c1c(F)cccc1F)N1CCC[C@H](NS(=O)(=O)CBr)C1 (mixture of isomers) [Example 213, a mixture of 1-bromo-N-{(3S)-1-[(1R,2R)-2-(2′,6′-difluoro[1,1′-biphenyl]-2-yl)cyclopropane-1-carbonyl]piperidin-3-yl}methanesulfonamide and 1-bromo-N-{(3S)-1-[(1S,2S)-2-(2′,6′-difluoro[1,1′-biphenyl]-2-yl)cyclopropane-1-carbonyl]piperidin-3-yl}methanesulfonamide]
105% | CS(=O)(=O)NC1CCCN(C(=O)C2CC2c2c(F)cccc2-c2c(F)cccc2F)C1 (stereo not drawn) [Example 211, N-{1-[2-(2′-3,6′-trifluoro[1,1′-biphenyl]-2-yl)cyclopropane-1-carbonyl]piperidin-3-yl}methanesulfonamide optical isomer]
95% | CS(=O)(=O)NC1CCN(C(=O)C2CC2c2cscc2-c2c(F)cccc2F)C1 (racemic) [Example 321, a mixture of rac-N-[(3R)-1-{(1R,2R)-2-[4-(2,6-difluorophenyl)thiophen-3-yl]cyclopropane-1-carbonyl}pyrrolidin-3-yl]methanesulfonamide and rac-N-[(3R)-1-{(1R,2R)-2-[4-(2,6-difluorophenyl)thiophen-3-yl]cyclopropane-1-carbonyl}pyrrolidin-3-yl]methanesulfonamide]
99% | COCC1(C(=O)N2C[C@@H](F)[C@H]2CNS(C)(=O)=O)CC1c1ccc(F)cc1-c1c(F)cccc1F (stereo partly drawn) [Example 436, N-({(2R,3R)-3-fluoro-1-[(1R,2S)-1-(methoxymethyl)-2-(2′,5,6′-trifluoro[1,1′-biphenyl]-2-yl)cyclopropane-1-carbonyl]azetidin-2-yl}methyl)methanesulfonamide, or N-({(2R,3R)-3-fluoro-1-[(1S,2R)-1-(methoxymethyl)-2-(2′,5,6′-trifluoro[1,1′-biphenyl]-2-yl)cyclopropane-1-carbonyl]azetidin-2-yl}methyl)methanesulfonamide]
103% | CS(=O)(=O)NC1CN(C(=O)C2CC2c2ccc(F)cc2-c2c(F)cccc2F)CC1(F)F (stereo not drawn) [Example 245, N-{4,4-difluoro-1-[2-(2′,5,6′-trifluoro[1,1′-biphenyl]-2-yl)cyclopropane-1-carbonyl]pyrrolidin-3-yl}methanesulfonamide optical isomer]
85% | COCS(=O)(=O)NC1CCN(C(=O)C2CC2c2ccccc2-c2c(F)cccc2F)C1 (mixture of isomers) [Example 227, a mixture of N-{(3S)-1-[(1R,2R)-2-(2′,6′-difluoro[1,1′-biphenyl]-2-yl)cyclopropane-1-carbonyl]pyrrolidin-3-yl}-1-methoxymethanesulfonamide and N-{(3S)-1-[(1S,2S)-2-(2′,6′-difluoro[1,1′-biphenyl]-2-yl)cyclopropane-1-carbonyl]pyrrolidin-3-yl}-1-methoxymethanesulfonamide]
93% | CS(=O)(=O)N[C@H]1CCCN(C(=O)C2CC2(F)c2ccccc2-c2c(F)cccc2F)C1 (single isomer, unassigned) [Example 306, N-{(3S)-1-[(1S,2S)-2-(2′,6′-difluoro [1,1′-biphenyl]-2-yl)-2-fluorocyclopropane-1-carbonyl]piperidin-3-yl}methanesulfonamide, or N-{(3S)-1-[(1R,2R)-2-(2′,6′-difluoro[1,1′-biphenyl]-2-yl)-2-fluorocyclopropane-1-carbonyl]piperidin-3-yl}methanesulfonamide]
73% | CS(=O)(=O)NC[C@@H]1CCN1C(=O)[C@@H]1C[C@H]1c1ccccc1-c1c(F)ccc(F)c1F [Example 408, N-({(2S)-1-[(1R,2R)-2-(2′,3′,6′-trifluoro[1,1′-biphenyl]-2-yl)cyclopropane-1-carbonyl]azetidin-2-yl}methyl)methanesulfonamide]
84% | CS(=O)(=O)NC[C@H]1CCN1C(=O)[C@@H]1C[C@H]1c1ccccc1-c1c(F)cccc1F [Example 370, N-({(2R)-1-[(1R,2R)-2-(2′,6′-difluoro[1,1′-biphenyl]-2-yl)cyclopropane-1-carbonyl]azetidin-2-yl}methyl)methanesulfonamide]
78% | CC1(C(=O)N2CCC[C@H](NS(C)(=O)=O)CC2)CC1c1ccccc1-c1c(F)cccc1F (stereo partly drawn) [Example 246, N-{(4S)-1-[(1R,2S)-2-(2′,6′-difluoro[1,1′-biphenyl]-2-yl)-1-methylcyclopropane-1-carbonyl]azepan-4-yl}methanesulfonamide, or N-{(4S)-1-[(1S,2R)-2-(2′,6′-difluoro[1,1′-biphenyl]-2-yl)-1-methylcyclopropane-1-carbonyl]azepan-4-yl}methanesulfonamide]
